Data set [1] is filed under the species Rattus norvegicus. Description: Biodistribution in rat bone in the presence of NCAGd/0.01 M lig. The note with it: in vivo. The format is ADME, organism-based, Bone element.
The species named for data set [2] is Rattus norvegicus. Description: Biodistribution in rat heart in the presence of NCAGd/0.01 M lig. The following applies: in vivo. The format is ADME, organism-based.
The species entered for data set [3] is Rattus norvegicus. As to the kind of experiment: Biodistribution in rat muscle in the presence of NCAGd/0.01 M lig. The note with it: in vivo. The format is ADME, organism-based, Muscle tissue.
The species entered for data set [4] is Rattus norvegicus. As to the kind of experiment: Biodistribution in rat liver by in the presence of NCAGd/0.01 M lig. The format is ADME, organism-based. The following applies: in vivo.
Data set [5] is filed under the species Rattus norvegicus. As to the kind of experiment: Biodistribution in rat blood in the presence of NCAGd/0.01 M lig. The format is ADME, organism-based. The following applies: in vivo.
The species named for data set [6] is Rattus norvegicus. Description: Uptake of [GD] in bone 1 hr post injection with 0.01(A) of the compound. The format is functional, Bone element.
The species named for data set [7] is Rattus norvegicus. Description: Uptake of [GD] in bone 1 hr post injection with 0.01(N) of the compound. The format is functional, Bone element.
For data set [8], the species on record is Rattus norvegicus. As to the kind of experiment: Uptake of [GD] in bone 1 hr post injection with NCA GD dose. The format is functional, Bone element.
The nature of data set [9]: Ratio of uptake of [GD] in bone 1 hr post injection with 0.01(A) to that of blood. The format is functional.
Data set [10] is described as follows: Ratio of uptake of [GD] in bone 1 hr post injection with 0.01(A) to that of muscle. The format is functional.
Data set [11] in a line: Ratio of uptake of [GD] in bone 1 h post injection with 0.01(N) to that of blood. The format is functional.
The species named for data set [12] is Rattus norvegicus. Description: Biodistribution in rat spleen in the presence of NCAGd/0.01 M lig. The data set is classed as ADME, organism-based. The following applies: in vivo.
Data set [13] is filed under the species Rattus norvegicus. Description: Biodistribution in rat kidney in the presence of NCAGd/0.01 M lig. The data set is classed as ADME, organism-based. The following applies: in vivo.
A short description of data set [14]: Ratio of uptake of [GD] in bone 1 hr post injection with 0.01(N) to that of muscle. The format is functional.
For data set [15], the species on record is Rattus norvegicus. Description: Uptake of [GD] in bone 1 h post injection with 0.01 of the compound. The data set is classed as functional, Bone element.
Data set [16] is described as follows: Ratio of uptake of [GD] in bone 1 hr post injection with 0.01 to that of muscle. The format is functional.
Data set [17] in a line: Ratio of uptake of [GD] in bone 1 hr post injection with NCA GD dose to that of muscle. The data set is classed as functional.
The species named for data set [18] is Rattus norvegicus. Description: Uptake of [GD] in bone 1 hr post injection with 0.01 (N) of the compound.
Data set [19] can be described thus: Ratio of uptake of [GD] in bone 1 hr post injection with 0.01 (N) to that of blood.
Data set [20] is described as follows: Ratio of uptake of [GD] in bone 1 hr post injection with 0.01 (N) to that of muscle.
The species entered for data set [21] is Rattus norvegicus. Description: Uptake of [GD] in bone 1 hr post injection with 0.005 of the compound. The format is functional, Bone element.
For data set [22], the species on record is Rattus norvegicus. As to the kind of experiment: Uptake of [GD] in bone 1 hr post injection with 0.02 of the compound. The data set is classed as functional, Bone element.
The species entered for data set [23] is Rattus norvegicus. Description: Uptake of [GD] in bone 1 hr post injection with 0.05 of the compound. The format is functional, Bone element.
The species named for data set [24] is Rattus norvegicus. As to the kind of experiment: Uptake of [GD] in bone 1 hr post injection with 0.10 of the compound. The format is functional, Bone element.
Data set [25] can be described thus: Uptake of [GD] in bone 1 hr post injection with NCA GD dose to that of muscle. The data set is classed as functional, Muscle tissue.
Data set [26] in a line: Ratio of uptake of [GD] in bone 1 hr post injection with 0.005 to that of blood. The format is functional.
Data set [27] is described as follows: Ratio of uptake of [GD] in bone 1 hr post injection with 0.005 to that of muscle. The format is functional.
Data set [28] in a line: Ratio of uptake of [GD] in bone 1 hr post injection with 0.02 to that of blood. The format is functional.
The nature of data set [29]: Ratio of uptake of [GD] in bone 1 hr post injection with 0.02 to that of muscle. The data set is classed as functional.
The nature of data set [30]: Ratio of uptake of [GD] in bone 1 hr post injection with 0.05 to that of blood. The data set is classed as functional.
Data set [31] in a line: Ratio of uptake of [GD] in bone 1 hr post injection with 0.05 to that of muscle. The data set is classed as functional.
The nature of data set [32]: Ratio of uptake of [GD] in bone 1 hr post injection with 0.10 to that of blood. The format is functional.
The nature of data set [33]: Ratio of uptake of [GD] in bone 1 hr post injection with 0.10 to that of muscle. The data set is classed as functional.
Data set [34] in a line: Ratio of uptake of [GD] in bone 1 hr post injection with 0.20 to that of blood. The data set is classed as functional.
The nature of data set [35]: Ratio of uptake of [GD] in bone 1 hr post injection with 0.20 to that of muscle. The data set is classed as functional.
Data set [36] can be described thus: Ratio of uptake of [GD] in bone 1 hr post injection with NCA GD dose to that of blood. The data set is classed as functional.
The species named for data set [37] is Rattus norvegicus. Description: Uptake of [GD] in bone 1 hr post injection with 0.20 of the compound. The data set is classed as functional, Bone element.

For 3 molecules, ID/organ, ID and Ratio results are on record in ChEMBL document CHEMBL1124314, “Development of phosphonate derivatives of gadolinium chelates for NMR imaging of calcified soft tissues” (J Med Chem, 1989).

For the molecule `OC(CNCCNCC(O)c1ccccc1)c1ccccc1` (stereo unspecified), the ID/organ in the data set listed under Rattus norvegicus [1] is listed as 56.8%; in the data set filed under Rattus norvegicus [2], 0.34%; in the data set listed under Rattus norvegicus [3], 6.09%; in the data set filed under Rattus norvegicus [4], 20.9%; in the data set filed under Rattus norvegicus [5], 2.35%; in the data set filed under Rattus norvegicus [12], 0.135%. For the same molecule, the ID/organ in the data set filed under Rattus norvegicus [13] was 3.57%. Further, the ID is recorded as 6.37% in the data set filed under Rattus norvegicus [6], 6.36% in the data set filed under Rattus norvegicus [7] and 56.8% in the data set listed under Rattus norvegicus [8]. The Ratio in data set [9] stood at 0.139%; in [10], 1.6%; in data set [11] it was 0.188; in data set [14], 2.14%.
Regarding `CC(C)(CO)NCCNC(C)(C)CO`, the ID/organ in the data set listed under Rattus norvegicus [1] is listed as 27.7%; in the data set listed under Rattus norvegicus [2], 0.28%; in the data set filed under Rattus norvegicus [3], 4.09%; in the data set filed under Rattus norvegicus [4], 41%; in the data set listed under Rattus norvegicus [5] it was 7.25%; in the data set filed under Rattus norvegicus [12], 0.19%. Further, the ID/organ in the data set filed under Rattus norvegicus [13] is recorded as 2.85%. The ID turned out to be 7.23% in the data set listed under Rattus norvegicus [15], 27.7% in the data set listed under Rattus norvegicus [8] and 2.56% in the data set filed under Rattus norvegicus [18]. The Ratio in data set [16] is listed as 1.61%; in [17] it was 6.78%; in data set [19], 0.135%; in data set [20], 1.47%.
As to `O=C(O)CN(CCN(CC(=O)O)CC(=O)O)CCN(CC(=O)O)CC(=O)NCCC(O)P(=O)(O)OP(=O)(O)O` (stereo unspecified), the ID is listed as 44.4% in the data set listed under Rattus norvegicus [21]; 28.9% in the data set listed under Rattus norvegicus [22]; 21.2% in the data set listed under Rattus norvegicus [23]; 16.1% in the data set filed under Rattus norvegicus [24]; 57% in the data set filed under Rattus norvegicus [8]; 13.5% in the data set filed under Rattus norvegicus [37]. The Ratio was 70.6 in [25]; 110.4 in data set [26]; 52.7 in [27]; 34.9 in data set [28]; 20.1 in data set [29]; 29.8 in data set [30]. Besides, the Ratio in data set [31] turned out to be 19.6; in [32], 25.7; in data set [33] it was 12.5; in data set [34] it was 13.9; in data set [35] it was 8.08; in [36] it was 108.
